Source: patent US20230085307A1, “PYRIDAZINONE COMPOUND AND HERBICIDE” (NISSAN CHEMICAL CORPORATION, priority 2019, published 2023)

Experiments:
redroot pigweed [1] = experiment: Test Example 5: herbicidal effect by foliage application, plastic box (Table 20, symbol N); assay type: in vivo, redroot pigweed (Amaranthus retroflexus); conditions: foliage application, 320 g/ha, evaluated three weeks after application
Procedure, shortened: (§1)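 Post-emergence foliar test in sterilized diluvial soil. Compound applied as water-diluted emulsion at a predetermined rate to 14-day-old plants; evaluation at three weeks.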

redroot pigweed [2] = experiment: Test Example 4: herbicidal effect by soil treatment (Table 19, symbol N); assay type: in vivo, redroot pigweed (Amaranthus retroflexus); conditions: amount of applied herbicide 320 g/ha
Procedure, shortened: (§2)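 Emulsion of test compound, water-diluted to predetermined amount, sprayed on soil after sowing (seed depth ~1.5 cm, sterilized diluvial soil). Greenhouse, 25–30° C. Effect graded at three weeks post-spray.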

chickweed [3] = experiment: Test Example 5: herbicidal effect by foliage application, plastic box (Table 20, symbol P); assay type: in vivo, common chickweed (Stellaria media); conditions: foliage application, 320 g/ha, evaluated three weeks after application
Procedure, shortened: as §1

persian speedwell [4] = experiment: Test Example 5: herbicidal effect by foliage application, plastic box (Table 20, symbol R); assay type: in vivo, Persian speedwell (Veronica persica); conditions: foliage application, 320 g/ha, evaluated three weeks after application
Procedure, shortened: as §1

southern crabgrass [5] = experiment: Test Example 4: herbicidal effect by soil treatment (Table 19, symbol F); assay type: in vivo, southern crabgrass (Digitaria ciliaris); conditions: amount of applied herbicide 320 g/ha
Procedure, shortened: as §2

velvetleaf [6] = experiment: Test Example 5: herbicidal effect by foliage application, plastic box (Table 20, symbol M); assay type: in vivo, velvetleaf (Abutilon theophrasti); conditions: foliage application, 320 g/ha, evaluated three weeks after application
Procedure, shortened: as §1

wild oat [7] = experiment: Test Example 5: herbicidal effect by foliage application, plastic box (Table 20, symbol I); assay type: in vivo, wild oat (Avena fatua); conditions: foliage application, 320 g/ha, evaluated three weeks after application
Procedure, shortened: as §1

blackgrass [8] = experiment: Test Example 4: herbicidal effect by soil treatment (Table 19, symbol J); assay type: in vivo, blackgrass (Alopecurus myosuroides); conditions: amount of applied herbicide 320 g/ha
Procedure, shortened: as §2

wild oat [9] = experiment: Test Example 4: herbicidal effect by soil treatment (Table 19, symbol I); assay type: in vivo, wild oat (Avena fatua); conditions: amount of applied herbicide 320 g/ha
Procedure, shortened: as §2

rice flat sedge = experiment: Test Example 3: herbicidal effect by foliage application, Wagner pot (Table 18, symbol E); assay type: in vivo, rice flat sedge (Cyperus iria); conditions: amount of applied herbicide 320 g/ha
Procedure, shortened: (§3)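 Plants were sown in alluvial soil held under 0.1–0.5 cm standing water and grown 14 days in a greenhouse at 25–30 °C. An emulsifiable formulation, water-diluted to the set dose, was then sprayed onto the foliage, and effects were scored three weeks later using previously defined criteria.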

barnyard grass [10] = experiment: Test Example 4: herbicidal effect by soil treatment (Table 19, symbol H); assay type: in vivo, barnyard grass (Echinochloa crus-galli); conditions: amount of applied herbicide 320 g/ha
Procedure, shortened: as §2

persian speedwell [11] = experiment: Test Example 4: herbicidal effect by soil treatment (Table 19, symbol R); assay type: in vivo, Persian speedwell (Veronica persica); conditions: amount of applied herbicide 320 g/ha
Procedure, shortened: as §2

Chinese sprangletop = experiment: Test Example 3: herbicidal effect by foliage application, Wagner pot (Table 18, symbol D); assay type: in vivo, chinese sprangletop (Leptochloa chinensis); conditions: amount of applied herbicide 320 g/ha
Procedure, shortened: as §3

barnyard grass [12] = experiment: Test Example 3: herbicidal effect by foliage application, Wagner pot (Table 18, symbol H); assay type: in vivo, barnyard grass (Echinochloa crus-galli); conditions: amount of applied herbicide 320 g/ha
Procedure, shortened: as §3

lambsquarters [13] = experiment: Test Example 5: herbicidal effect by foliage application, plastic box (Table 20, symbol O); assay type: in vivo, lambsquarters (Chenopodium album); conditions: foliage application, 320 g/ha, evaluated three weeks after application
Procedure, shortened: as §1

velvetleaf [14] = experiment: Test Example 4: herbicidal effect by soil treatment (Table 19, symbol M); assay type: in vivo, velvetleaf (Abutilon theophrasti); conditions: amount of applied herbicide 320 g/ha
Procedure, shortened: as §2

windgrass [15] = experiment: Test Example 4: herbicidal effect by soil treatment (Table 19, symbol L); assay type: in vivo, windgrass (Apera spica-venti); conditions: amount of applied herbicide 320 g/ha
Procedure, shortened: as §2

barnyard grass [16] = experiment: Test Example 5: herbicidal effect by foliage application, plastic box (Table 20, symbol H); assay type: in vivo, barnyard grass (Echinochloa crus-galli); conditions: foliage application, 320 g/ha, evaluated three weeks after application
Procedure, shortened: as §1

blackgrass [17] = experiment: Test Example 5: herbicidal effect by foliage application, plastic box (Table 20, symbol J); assay type: in vivo, blackgrass (Alopecurus myosuroides); conditions: foliage application, 320 g/ha, evaluated three weeks after application
Procedure, shortened: as §1

Italian ryegrass [18] = experiment: Test Example 4: herbicidal effect by soil treatment (Table 19, symbol K); assay type: in vivo, Italian ryegrass (Lolium multiflorum); conditions: amount of applied herbicide 320 g/ha
Procedure, shortened: as §2

windgrass [19] = experiment: Test Example 5: herbicidal effect by foliage application, plastic box (Table 20, symbol L); assay type: in vivo, windgrass (Apera spica-venti); conditions: foliage application, 320 g/ha, evaluated three weeks after application
Procedure, shortened: as §1

southern crabgrass [20] = experiment: Test Example 5: herbicidal effect by foliage application, plastic box (Table 20, symbol F); assay type: in vivo, southern crabgrass (Digitaria ciliaris); conditions: foliage application, 320 g/ha, evaluated three weeks after application
Procedure, shortened: as §1

chickweed [21] = experiment: Test Example 4: herbicidal effect by soil treatment (Table 19, symbol P); assay type: in vivo, common chickweed (Stellaria media); conditions: amount of applied herbicide 320 g/ha
Procedure, shortened: as §2

Italian ryegrass [22] = experiment: Test Example 5: herbicidal effect by foliage application, plastic box (Table 20, symbol K); assay type: in vivo, Italian ryegrass (Lolium multiflorum); conditions: foliage application, 320 g/ha, evaluated three weeks after application
Procedure, shortened: as §1

green foxtail [23] = experiment: Test Example 4: herbicidal effect by soil treatment (Table 19, symbol G); assay type: in vivo, green foxtail (Setaria viridis); conditions: amount of applied herbicide 320 g/ha
Procedure, shortened: as §2

lambsquarters [24] = experiment: Test Example 4: herbicidal effect by soil treatment (Table 19, symbol O); assay type: in vivo, lambsquarters (Chenopodium album); conditions: amount of applied herbicide 320 g/ha
Procedure, shortened: as §2

green foxtail [25] = experiment: Test Example 5: herbicidal effect by foliage application, plastic box (Table 20, symbol G); assay type: in vivo, green foxtail (Setaria viridis); conditions: foliage application, 320 g/ha, evaluated three weeks after application
Procedure, shortened: as §1

Row | Compound | herbicidal effect on N: redroot pigweed (criteria 0-5) (redroot pigweed [1]) | N: redroot pigweed, herbicidal effect rating (redroot pigweed [2]) | herbicidal effect on P: chickweed (criteria 0-5) (chickweed [3]) | herbicidal effect on R: persian speedwell (criteria 0-5) (persian speedwell [4]) | F: southern crabgrass, herbicidal effect rating (southern crabgrass [5]) | herbicidal effect on M: velvetleaf (criteria 0-5) (velvetleaf [6]) | herbicidal effect on I: wild oat (criteria 0-5) (wild oat [7]) | J: blackgrass, herbicidal effect rating (blackgrass [8]) | I: wild oat, herbicidal effect rating (wild oat [9]) | herbicidal effect on E: rice flat sedge (rice flat sedge) | H: barnyard grass, herbicidal effect rating (barnyard grass [10]) | R: persian speedwell, herbicidal effect rating (persian speedwell [11]) | herbicidal effect on D: Chinese sprangletop (Chinese sprangletop) | herbicidal effect on H: barnyard grass (barnyard grass [12]) | herbicidal effect on O: lambsquarters (criteria 0-5) (lambsquarters [13]) | M: velvetleaf, herbicidal effect rating (velvetleaf [14]) | L: windgrass, herbicidal effect rating (windgrass [15]) | herbicidal effect on H: barnyard grass (criteria 0-5) (barnyard grass [16]) | herbicidal effect on J: blackgrass (criteria 0-5) (blackgrass [17]) | K: Italian ryegrass, herbicidal effect rating (Italian ryegrass [18]) | other results
1 | CCCC(=O)Oc1c(C)nn(C)c(=O)c1-c1c(-c2ccccc2Cl)sc2ccc(F)cc12 [2-204] | 5 (Herbicidal rate of 90% or more (almost completely withered)) | 2 (Herbicidal rate of 20% or more and less than 40%) | 5 (Herbicidal rate of 90% or more (almost completely withered)) | 5 (Herbicidal rate of 90% or more (almost completely withered)) | 0 (Herbicidal rate of 5% or less (almost no effect)) | 4 (Herbicidal rate of 70% or more and less than 90%) | 3 (Herbicidal rate of 40% or more and less than 70%) | 0 (Herbicidal rate of 5% or less (almost no effect)) | 0 (Herbicidal rate of 5% or less (almost no effect)) | 3 (Herbicidal rate of 40% or more and less than 70%) | 0 (Herbicidal rate of 5% or less (almost no effect)) | 3 (Herbicidal rate of 40% or more and less than 70%) | 3 (Herbicidal rate of 40% or more and less than 70%) | 4 (Herbicidal rate of 70% or more and less than 90%) | 3 (Herbicidal rate of 40% or more and less than 70%) | 0 (Herbicidal rate of 5% or less (almost no effect)) | 0 (Herbicidal rate of 5% or less (almost no effect)) | 0 (Herbicidal rate of 5% or less (almost no effect)) | 0 (Herbicidal rate of 5% or less (almost no effect)) | 0 (Herbicidal rate of 5% or less (almost no effect)) | herbicidal effect on L: windgrass (criteria 0-5) (windgrass [19]): 3 (Herbicidal rate of 40% or more and less than 70%); herbicidal effect on F: southern crabgrass (criteria 0-5) (southern crabgrass [20]): 0 (Herbicidal rate of 5% or less (almost no effect)); P: chickweed, herbicidal effect rating (chickweed [21]): 3 (Herbicidal rate of 40% or more and less than 70%); herbicidal effect on K: Italian ryegrass (criteria 0-5) (Italian ryegrass [22]): 3 (Herbicidal rate of 40% or more and less than 70%); G: green foxtail, herbicidal effect rating (green foxtail [23]): 0 (Herbicidal rate of 5% or less (almost no effect)); O: lambsquarters, herbicidal effect rating (lambsquarters [24]): 0 (Herbicidal rate of 5% or less (almost no effect)); herbicidal effect on G: green foxtail (criteria 0-5) (green foxtail [25]): 5 (Herbicidal rate of 90% or more (almost completely withered))
2 | CCCCOc1cccc(-c2sc3ccc(F)cc3c2-c2c(OC(=O)CCC)c(C)nn(C)c2=O)c1 [2-220] | 3 (Herbicidal rate of 40% or more and less than 70%) | 4 (Herbicidal rate of 70% or more and less than 90%) | 4 (Herbicidal rate of 70% or more and less than 90%) | 4 (Herbicidal rate of 70% or more and less than 90%) | 0 (Herbicidal rate of 5% or less (almost no effect)) | 1 (Herbicidal rate of 5% or more and less than 20%) | 0 (Herbicidal rate of 5% or less (almost no effect)) | 0 (Herbicidal rate of 5% or less (almost no effect)) | 0 (Herbicidal rate of 5% or less (almost no effect)) | 3 (Herbicidal rate of 40% or more and less than 70%) | 1 (Herbicidal rate of 5% or more and less than 20%) | 0 (Herbicidal rate of 5% or less (almost no effect)) | 3 (Herbicidal rate of 40% or more and less than 70%) | 5 (Herbicidal rate of 90% or more (almost completely withered)) | 3 (Herbicidal rate of 40% or more and less than 70%) | 0 (Herbicidal rate of 5% or less (almost no effect)) | 0 (Herbicidal rate of 5% or less (almost no effect)) | 3 (Herbicidal rate of 40% or more and less than 70%) | 0 (Herbicidal rate of 5% or less (almost no effect)) | 0 (Herbicidal rate of 5% or less (almost no effect)) | herbicidal effect on L: windgrass (criteria 0-5) (windgrass [19]): 0 (Herbicidal rate of 5% or less (almost no effect)); herbicidal effect on F: southern crabgrass (criteria 0-5) (southern crabgrass [20]): 3 (Herbicidal rate of 40% or more and less than 70%); P: chickweed, herbicidal effect rating (chickweed [21]): 0 (Herbicidal rate of 5% or less (almost no effect)); herbicidal effect on K: Italian ryegrass (criteria 0-5) (Italian ryegrass [22]): 0 (Herbicidal rate of 5% or less (almost no effect)); G: green foxtail, herbicidal effect rating (green foxtail [23]): 0 (Herbicidal rate of 5% or less (almost no effect)); O: lambsquarters, herbicidal effect rating (lambsquarters [24]): 0 (Herbicidal rate of 5% or less (almost no effect)); herbicidal effect on G: green foxtail (criteria 0-5) (green foxtail [25]): 3 (Herbicidal rate of 40% or more and less than 70%)
